Among the data in PMC7614683, “A small molecule PI3Kα activator for cardioprotection and neuroregeneration” (Nature, 2023) are inhibition values, retold here.

What all share (experiment): SelectScreen Z-LYTE kinase activity assay (SI Table 6)
Holding throughout (type): biochemical

Assay [1] deals with T1, protein kinases of the Z-LYTE panel (Homo sapiens, UniProt O14757).
T1 sequence (O14757 1-476): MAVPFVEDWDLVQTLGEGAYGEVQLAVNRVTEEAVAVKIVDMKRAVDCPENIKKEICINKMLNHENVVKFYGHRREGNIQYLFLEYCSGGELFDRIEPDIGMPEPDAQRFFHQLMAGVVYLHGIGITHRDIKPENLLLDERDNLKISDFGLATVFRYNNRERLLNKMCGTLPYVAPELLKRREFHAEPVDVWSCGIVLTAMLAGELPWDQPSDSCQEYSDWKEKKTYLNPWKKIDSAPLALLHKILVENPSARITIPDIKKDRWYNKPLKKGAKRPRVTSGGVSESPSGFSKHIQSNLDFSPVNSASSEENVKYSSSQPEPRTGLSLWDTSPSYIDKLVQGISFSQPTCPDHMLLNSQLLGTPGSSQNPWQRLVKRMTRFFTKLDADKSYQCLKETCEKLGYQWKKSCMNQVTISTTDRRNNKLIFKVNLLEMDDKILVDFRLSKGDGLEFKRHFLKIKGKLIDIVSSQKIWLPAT
In a few lines: (§1)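 A counterscreen of 133 protein and 7 lipid kinases was run with one compound concentration, 1 μM 1938, in SelectScreen Adapta, Lantha or Z-LYTE assays.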

Assay [2] has as its target T2, protein kinases of the Z-LYTE panel (Homo sapiens, UniProt P51813).
T2 sequence (P51813 1-675): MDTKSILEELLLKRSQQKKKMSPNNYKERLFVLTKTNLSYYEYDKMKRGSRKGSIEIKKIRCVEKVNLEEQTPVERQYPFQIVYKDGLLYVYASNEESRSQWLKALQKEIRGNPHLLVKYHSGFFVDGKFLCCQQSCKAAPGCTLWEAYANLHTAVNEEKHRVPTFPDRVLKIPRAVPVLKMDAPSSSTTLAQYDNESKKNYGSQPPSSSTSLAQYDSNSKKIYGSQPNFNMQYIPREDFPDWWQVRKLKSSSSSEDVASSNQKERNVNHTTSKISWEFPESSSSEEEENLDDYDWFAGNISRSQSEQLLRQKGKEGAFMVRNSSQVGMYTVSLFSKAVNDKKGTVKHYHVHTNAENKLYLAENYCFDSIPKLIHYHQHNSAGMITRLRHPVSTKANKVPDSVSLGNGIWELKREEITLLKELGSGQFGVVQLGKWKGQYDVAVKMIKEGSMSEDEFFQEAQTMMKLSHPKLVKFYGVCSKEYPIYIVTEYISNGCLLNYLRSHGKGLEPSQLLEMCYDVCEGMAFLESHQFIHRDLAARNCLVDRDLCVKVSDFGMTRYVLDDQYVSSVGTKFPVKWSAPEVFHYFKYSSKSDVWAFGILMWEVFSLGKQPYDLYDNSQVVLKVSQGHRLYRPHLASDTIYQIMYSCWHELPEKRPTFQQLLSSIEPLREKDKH
In a few lines:
as §1

Assay [3] deals with protein kinases of the Z-LYTE panel (Homo sapiens, UniProt Q04759). In a few lines:
as §1

The target in assay [4] is protein kinases of the Z-LYTE panel (Homo sapiens, UniProt Q96GD4). In a few lines: as §1
protein kinases of the Z-LYTE panel (Homo sapiens, UniProt Q96GD4), sequence (Q96GD4 whole entry): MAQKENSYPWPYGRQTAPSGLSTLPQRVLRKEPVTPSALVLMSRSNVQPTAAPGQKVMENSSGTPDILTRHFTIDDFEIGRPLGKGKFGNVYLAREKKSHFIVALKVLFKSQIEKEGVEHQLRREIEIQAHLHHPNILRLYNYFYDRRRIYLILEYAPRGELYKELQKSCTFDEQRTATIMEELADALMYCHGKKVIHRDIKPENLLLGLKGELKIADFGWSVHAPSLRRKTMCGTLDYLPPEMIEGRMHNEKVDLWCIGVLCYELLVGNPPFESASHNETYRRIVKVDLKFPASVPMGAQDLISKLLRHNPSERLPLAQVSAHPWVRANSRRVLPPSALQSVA
The target of assay [5] is protein kinases of the Z-LYTE panel (Homo sapiens, UniProt Q9P286). In a few lines:
as §1

SMILES strings stand for the structures. Like-named read-outs stand apart in the source and are kept apart here.

protein kinases of the Z-LYTE panel (Homo sapiens, UniProt Q04759), sequence (Q04759 whole entry): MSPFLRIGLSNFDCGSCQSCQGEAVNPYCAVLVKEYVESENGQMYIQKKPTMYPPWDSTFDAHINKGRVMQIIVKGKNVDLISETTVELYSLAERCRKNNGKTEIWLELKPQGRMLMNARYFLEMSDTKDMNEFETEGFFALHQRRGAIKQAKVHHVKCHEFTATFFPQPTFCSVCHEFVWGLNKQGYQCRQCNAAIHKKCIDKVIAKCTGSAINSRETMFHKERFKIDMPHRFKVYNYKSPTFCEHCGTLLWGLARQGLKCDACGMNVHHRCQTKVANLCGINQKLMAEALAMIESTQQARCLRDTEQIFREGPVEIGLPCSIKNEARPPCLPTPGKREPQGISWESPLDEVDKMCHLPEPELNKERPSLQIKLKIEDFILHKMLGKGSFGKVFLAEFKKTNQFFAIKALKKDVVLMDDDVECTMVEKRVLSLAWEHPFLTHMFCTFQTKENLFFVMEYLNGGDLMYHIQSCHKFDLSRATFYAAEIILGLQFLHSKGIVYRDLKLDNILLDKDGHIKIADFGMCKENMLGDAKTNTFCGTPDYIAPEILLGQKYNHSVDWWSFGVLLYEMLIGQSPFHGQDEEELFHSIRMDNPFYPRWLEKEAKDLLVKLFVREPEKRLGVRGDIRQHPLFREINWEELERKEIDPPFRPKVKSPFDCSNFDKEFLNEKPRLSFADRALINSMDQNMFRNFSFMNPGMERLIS
protein kinases of the Z-LYTE panel (Homo sapiens, UniProt Q9P286), sequence (Q9P286 whole entry): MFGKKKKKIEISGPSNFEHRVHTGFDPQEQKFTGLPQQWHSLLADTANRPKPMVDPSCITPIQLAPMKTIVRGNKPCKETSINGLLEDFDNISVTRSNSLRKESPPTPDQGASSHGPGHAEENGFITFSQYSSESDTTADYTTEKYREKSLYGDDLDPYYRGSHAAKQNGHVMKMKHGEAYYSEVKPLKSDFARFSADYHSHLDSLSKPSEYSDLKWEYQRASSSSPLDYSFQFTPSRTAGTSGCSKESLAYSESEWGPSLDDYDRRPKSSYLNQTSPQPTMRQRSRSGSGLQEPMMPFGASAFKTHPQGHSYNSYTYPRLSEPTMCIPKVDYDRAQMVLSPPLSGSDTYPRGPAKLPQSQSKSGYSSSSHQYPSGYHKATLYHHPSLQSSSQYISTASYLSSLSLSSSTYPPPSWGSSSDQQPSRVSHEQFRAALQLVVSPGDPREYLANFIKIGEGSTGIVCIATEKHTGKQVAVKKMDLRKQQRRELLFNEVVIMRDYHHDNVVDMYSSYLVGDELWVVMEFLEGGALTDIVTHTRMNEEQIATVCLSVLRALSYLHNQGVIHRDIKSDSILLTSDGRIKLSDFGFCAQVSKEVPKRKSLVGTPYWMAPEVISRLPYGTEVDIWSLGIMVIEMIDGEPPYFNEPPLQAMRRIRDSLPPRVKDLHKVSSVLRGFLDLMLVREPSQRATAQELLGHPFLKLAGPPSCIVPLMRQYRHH

A word on the inhibition: it is the drop in the measured response relative to a control, in per cent. For `CCN1CCN(c2ccc(Nc3cc(Nc4cccc5c4N(C(C)=O)CC5)ccn3)cc2)CC1` [Compound 1938], the inhibition at 1 µM in assay [1] (read-out: % Inhibition Point 1) is 2%; in assay [1] (read-out: % Inhibition Point 2) it was -3.79%; in assay [1] (read-out: % Inhibition mean), -0.889%; in assay [2] (read-out: % Inhibition Point 1), 19%; in assay [2] (read-out: % Inhibition Point 2), 25%; in assay [2] (read-out: % Inhibition mean), 22%. Also, the inhibition at 1 µM in assay [3] (read-out: % Inhibition Point 1) was determined as 12%; in assay [3] (read-out: % Inhibition Point 2), 6.62%; in assay [3] (read-out: % Inhibition mean) it was 9%; in assay [4] (read-out: % Inhibition Point 1) it was 30%; in assay [4] (read-out: % Inhibition Point 2) it was 29%; in assay [4] (read-out: % Inhibition mean) it was 30%. For the same molecule, the values for the inhibition at 1 µM in assay [5] (read-out: % Inhibition Point 1), in assay [5] (read-out: % Inhibition Point 2) and in assay [5] (read-out: % Inhibition mean) were 0.526%, 3.33% and 2%, respectively.
